# Data: US20210395313A1, “PEPTIDE PAC1 ANTAGONISTS” (AMGEN INC., priority 2017, published 2021)
# Where a SMILES comes first, the peptide text is derived from it. Bridges are numbered along the chain shown (N, C = ends). Where no end group is shown, it is not given here.
# Tests used:
# human PAC1 receptor = biological target: T1, human PAC1 receptor (Homo sapiens, UniProt P41586); test: LANCE Ultra cAMP accumulation antagonist assay in SHSY-5Y cells; type: cell-based;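 note: inhibition of cAMP accumulation evoked by PAC1 agonist at its EC80 in SHSY-5Y cells endogenously expressing receptor, 30 min preincubation then 15 min agonist, TR-FRET readout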
# T1 construct: SHSY-5Y (human neuroblastoma cell line) and RG-2 (rat glioma cell line) cells endogenously express human and rat PAC1 receptors, respectively; endogenous in cells; host or cells: SHSY-5Y human neuroblastoma cells
# T1 sequence (P41586 21-468): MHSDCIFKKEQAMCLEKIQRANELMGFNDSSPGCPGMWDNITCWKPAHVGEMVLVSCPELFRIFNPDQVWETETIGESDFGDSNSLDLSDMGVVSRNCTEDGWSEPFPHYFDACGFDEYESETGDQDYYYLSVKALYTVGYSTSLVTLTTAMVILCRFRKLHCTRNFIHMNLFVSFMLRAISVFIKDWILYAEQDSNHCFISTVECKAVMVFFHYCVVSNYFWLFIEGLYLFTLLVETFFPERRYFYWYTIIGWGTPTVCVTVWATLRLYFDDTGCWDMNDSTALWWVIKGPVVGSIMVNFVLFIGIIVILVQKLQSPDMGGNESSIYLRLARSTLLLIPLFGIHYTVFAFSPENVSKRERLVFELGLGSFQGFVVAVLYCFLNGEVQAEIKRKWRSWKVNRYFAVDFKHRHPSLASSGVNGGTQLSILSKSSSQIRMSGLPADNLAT
# rat PAC1 receptor = biological target: T2, rat PAC1 receptor (Rattus norvegicus, UniProt P32215); test: LANCE Ultra cAMP accumulation antagonist assay in RG-2 cells; type: cell-based;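 note: RG-2 rat glioma cells endogenously expressing PAC1, test peptide preincubated 30 min, then PAC1 agonist added at its EC80 for 15 min, cAMP accumulation read by LANCE Ultra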
# T2 construct: SHSY-5Y (human neuroblastoma cell line) and RG-2 (rat glioma cell line) cells endogenously express human and rat PAC1 receptors, respectively; endogenous in cells; host or cells: RG-2 rat glioma cells
# T2 sequence (P32215 20-523): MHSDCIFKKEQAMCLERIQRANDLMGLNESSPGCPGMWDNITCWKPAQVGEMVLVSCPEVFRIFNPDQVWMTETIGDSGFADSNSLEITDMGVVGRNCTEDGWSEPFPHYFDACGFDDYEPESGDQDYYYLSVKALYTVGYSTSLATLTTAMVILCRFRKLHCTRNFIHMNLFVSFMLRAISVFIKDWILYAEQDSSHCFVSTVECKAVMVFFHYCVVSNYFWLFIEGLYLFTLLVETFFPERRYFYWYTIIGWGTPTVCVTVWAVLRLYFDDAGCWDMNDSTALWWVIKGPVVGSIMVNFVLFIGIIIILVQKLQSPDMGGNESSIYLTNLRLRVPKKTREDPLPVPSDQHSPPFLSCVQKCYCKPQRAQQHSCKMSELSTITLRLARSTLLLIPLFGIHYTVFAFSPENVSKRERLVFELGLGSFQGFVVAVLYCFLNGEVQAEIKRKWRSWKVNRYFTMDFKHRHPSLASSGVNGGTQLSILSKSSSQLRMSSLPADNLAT
Molecule,IC50 (human PAC1 receptor) [nM],IC50 (rat PAC1 receptor) [nM]
"CC[C@H](C)[C@H](NC(=O)[C@H](C)NC(=O)[C@H](CCCCN)NC(=O)[C@H](CCCNC(=N)N)NC(=O)[C@H](Cc1ccccc1)NC(=O)[C@H](CCC(N)=O)NC(=O)[C@@H]1CSSC[C@H](N)C(=O)N[C@@H](CC(=O)O)C(=O)N[C@@H](C)C(=O)N[C@@H]([C@@H](C)O)C(=O)N1)C(=O)N[C@@H](CC(=O)O)C(=O)N[C@@H](CC(=O)O)C(=O)N[C@H]1CSSC[C@@H](C(=O)N[C@@H](CCSC)C(=O)N[C@@H](CCCCN)C(=O)N[C@@H](CCC(N)=O)C(=O)N[C@@H](CCCCN)C(=O)N[C@@H](CCCCN)C(=O)N[C@@H](CCCCN)C(=O)N[C@@H](CCC(=O)O)C(=O)N[C@@H](Cc2ccccc2)C(=O)N[C@@H](CCCCN)C(N)=O)NC(=O)[C@H](CCC(=O)O)NC(=O)[C@H](CCCCN)NC(=O)[C@H](Cc2ccccc2)NC(=O)[C@H](C(C)C)NC(=O)[C@H](CO)NC(=O)[C@H](CC(N)=O)NC(=O)CNC(=O)[C@H](C(C)C)NC(=O)[C@H](CC(N)=O)NC(=O)[C@H](CO)NC(=O)[C@H](Cc2c[nH]cn2)NC(=O)[C@H](Cc2c[nH]cn2)NC(=O)[C@H](C)NC(=O)[C@H](CCC(N)=O)NC(=O)[C@H](CCCCN)NC(=O)[C@H](CCC(N)=O)NC1=O [compound 275] (H-CDATCQFRKAIDDCQKQAHHSNVGNSVFKECMKQKKKEFK-NH2; disulfide 1-5, 14-31)",1 to 100,1 to 100
CC[C@H](C)[C@H](NC(=O)[C@H](C)NC(=O)[C@H](CCCCN)NC(=O)[C@H](CCCNC(=N)N)NC(=O)[C@H](Cc1ccccc1)NC(=O)[C@H](CCC(N)=O)NC(=O)[C@@H]1CSSC[C@H](N)C(=O)N[C@@H](CC(=O)O)C(=O)N[C@@H](C)C(=O)N[C@@H]([C@@H](C)O)C(=O)N1)C(=O)N[C@@H](CC(=O)O)C(=O)N[C@@H](CC(=O)O)C(=O)N[C@H]1CSSC[C@@H](C(=O)N[C@@H](CCSC)C(=O)N[C@@H](CCCCN)C(=O)N[C@@H](CCC(N)=O)C(=O)N[C@@H](CCCCN)C(=O)N[C@@H](CCCCN)C(=O)N[C@@H](CCCCN)C(=O)N[C@@H](CCC(=O)O)C(=O)N[C@@H](Cc2ccccc2)C(=O)N[C@@H](CCCCN)C(N)=O)NC(=O)[C@H](CCC(=O)O)NC(=O)[C@H](CCCCN)NC(=O)[C@H](Cc2ccccc2)NC(=O)[C@H](C(C)C)NC(=O)[C@H](CO)NC(=O)CNC(=O)[C@@H]2CCCN2C(=O)[C@H](C(C)C)NC(=O)[C@H](CC(N)=O)NC(=O)[C@H](CO)NC(=O)[C@H](Cc2c[nH]cn2)NC(=O)[C@H](Cc2c[nH]cn2)NC(=O)[C@H](C)NC(=O)[C@H](CCC(N)=O)NC(=O)[C@H](CCCCN)NC(=O)[C@H](CCC(N)=O)NC1=O [compound 293],1 to 100,0.01 to 1
CC[C@H](C)[C@H](NC(=O)[C@H](C)NC(=O)[C@H](CCCCN)NC(=O)[C@H](CCCNC(=N)N)NC(=O)[C@H](Cc1ccccc1)NC(=O)[C@H](CCC(N)=O)NC(=O)[C@@H]1CSSC[C@H](N)C(=O)N[C@@H](CC(=O)O)C(=O)N[C@@H](C)C(=O)N[C@@H]([C@@H](C)O)C(=O)N1)C(=O)N[C@@H](CC(=O)O)C(=O)N[C@@H](CC(=O)O)C(=O)N[C@H]1CSSC[C@@H](C(=O)N[C@@H](CCSC)C(=O)N[C@@H](CCCCN)C(=O)N[C@@H](CCC(N)=O)C(=O)N[C@@H](CCCCN)C(=O)N[C@@H](CCCCN)C(=O)N[C@@H](CCCCN)C(=O)N[C@@H](CCC(=O)O)C(=O)N[C@@H](Cc2ccccc2)C(=O)N[C@@H](CCCCN)C(N)=O)NC(=O)[C@H](CCC(=O)O)NC(=O)[C@H](CCCCN)NC(=O)[C@H](Cc2ccccc2)NC(=O)[C@H](C(C)C)NC(=O)[C@H](CO)NC(=O)[C@H](CC(N)=O)NC(=O)CNC(=O)[C@@H]2CCCN2C(=O)[C@H](C(C)C)NC(=O)[C@H](CC(N)=O)NC(=O)[C@H](CO)NC(=O)[C@H](Cc2c[nH]cn2)NC(=O)[C@H](Cc2c[nH]cn2)NC(=O)[C@H](C)NC(=O)[C@H](CCC(N)=O)NC(=O)[C@H](CCCCN)NC(=O)[C@H](CC(=O)O)NC1=O [compound 295],1 to 100,0.01 to 1
"CC[C@H](C)[C@H](NC(=O)[C@H](C)NC(=O)[C@H](CCCCN)NC(=O)[C@H](CCCNC(=N)N)NC(=O)[C@H](Cc1ccccc1)NC(=O)[C@H](CCC(N)=O)NC(=O)[C@@H]1CSSC[C@H](N)C(=O)N[C@@H](CC(=O)O)C(=O)N[C@@H](C)C(=O)N[C@@H]([C@@H](C)O)C(=O)N1)C(=O)N[C@@H](CC(=O)O)C(=O)N[C@@H](CC(=O)O)C(=O)N[C@H]1CSSC[C@@H](C(=O)N[C@@H](CCSC)C(=O)N[C@@H](CCCCN)C(=O)N[C@@H](CCC(N)=O)C(=O)N[C@@H](CCCCN)C(=O)N[C@@H](CCCCN)C(=O)N[C@@H](CCCCN)C(=O)N[C@@H](CCC(=O)O)C(=O)N[C@@H](Cc2ccccc2)C(=O)N[C@@H](CCCCN)C(N)=O)NC(=O)[C@H](CCC(=O)O)NC(=O)[C@H](CCCCN)NC(=O)[C@H](Cc2ccccc2)NC(=O)[C@H](C(C)C)NC(=O)[C@H](CO)NC(=O)[C@H](CC(N)=O)NC(=O)[C@@H]2CCCN2C(=O)[C@H](C(C)C)NC(=O)[C@H](CC(N)=O)NC(=O)[C@H](CO)NC(=O)[C@H](Cc2c[nH]cn2)NC(=O)[C@H](Cc2c[nH]cn2)NC(=O)[C@H](C)NC(=O)[C@H](CCC(N)=O)NC(=O)[C@H](CCCCN)NC(=O)[C@H](CCC(N)=O)NC1=O [compound 311] (H-CDATCQFRKAIDDCQKQAHHSNVPNSVFKECMKQKKKEFK-NH2; disulfide 1-5, 14-31)",> 100,1 to 100
"CSCC[C@@H]1NC(=O)[C@H](C)NC(=O)[C@H](C(C)C)NC(=O)[C@H](CCCCN)NC(=O)[C@H](CCCCN)NC(=O)[C@H](Cc2ccc(O)cc2)NC(=O)[C@H](CC(C)C)NC(=O)[C@@H](NC(=O)[C@H](C)NC(=O)[C@@H](NC(=O)[C@H](CC(C)C)NC(=O)CNC(=O)[C@H](CCCCN)NC(=O)[C@H](CCCNC(=N)N)NC(=O)[C@H](Cc2ccc(O)cc2)NC(=O)[C@H](CCC(N)=O)NC(=O)[C@@H]2CSSC[C@H](N)C(=O)N[C@@H](CC(=O)O)C(=O)N[C@@H](C)C(=O)N[C@@H]([C@@H](C)O)C(=O)N2)C(C)C)CSSC[C@@H](C(=O)N[C@@H](CCSC)C(=O)N[C@@H](CCCCN)C(=O)N[C@@H](CCC(N)=O)C(=O)N[C@@H](CCCCN)C(=O)N[C@@H](CCCCN)C(=O)N[C@@H](CCCCN)C(=O)N[C@@H](CCC(=O)O)C(=O)N[C@@H](Cc2c[nH]c3ccccc23)C(N)=O)NC(=O)[C@H](C)NC(=O)[C@H](CCCCN)NC(=O)[C@H](Cc2ccccc2)NC(=O)[C@H](C(C)C)NC(=O)[C@H](CO)NC(=O)[C@H](Cc2ccc(O)cc2)NC(=O)[C@H](CCCNC(=N)N)NC(=O)[C@H](CCCCN)NC(=O)[C@H](CCC(N)=O)NC1=O [compound 427] (H-CDATCQYRKGLVACLYKKVAMQKRYSVFKACMKQKKKEW-NH2; disulfide 1-5, 14-31)",1 to 100,1 to 100
"CDATCFFRKVIDDCQKQAHHSNVPGSVFKACMKQLKKRWQAG-NH2 (disulfide 1-5, 14-31) [compound 125]",> 100,1 to 100
"CDATCFFRKVIDDCYYRSWHSNVPGSVFKACMKQLKKRWQAG-NH2 (disulfide 1-5, 14-31) [compound 70]",1 to 100,1 to 100
"CDATCHFRKAIDDCQKQAHHSNVPGSVFKACMKQHKKRWRAG-NH2 (disulfide 1-5, 14-31) [compound 124]",0.01 to 1,0.01 to 1
"CDATCHFRKAIDDCYYRSWHSNVPGSVFKACMKQHKKRWRAG-NH2 (disulfide 1-5, 14-31) [compound 71]",0.01 to 1,0.01 to 1
"CDATCQFRKAIDDCAGRASHANVPGSVFKACMKQKKKEWKAGH-NH2 (disulfide 1-5, 14-31) [compound 425]",0.01 to 1,0.01 to 1
"CDATCQFRKAIDDCAHRAWHSNVPGSVFKLCMKQKKKEWKAGH-NH2 (disulfide 1-5, 14-31) [compound 424]",0.01 to 1,0.01 to 1
"CDATCQFRKAIDDCAKASWHSNVPGSVFKSCMKQKKKEWKAGH-NH2 (disulfide 1-5, 14-31) [compound 1]",0.01 to 1,< 0.01
"CDATCQFRKAIDDCAKQAHHANVPGSVFKACMKQKKKEFKAG-NH2 (disulfide 1-5, 14-31) [compound 13]",0.01 to 1,0.01 to 1
"CDATCQFRKAIDDCAKQAHHSNVPGSVFKACIKQKKKEFKAG-NH2 (disulfide 1-5, 14-31) [compound 14]",0.01 to 1,0.01 to 1
"CDATCQFRKAIDDCAKQAHHSNVPGSVFKACMKQKKKEFKAGH (disulfide 1-5, 14-31) [compound 57]",0.01 to 1,0.01 to 1
"CDATCQFRKAIDDCAKQAHHSNVPGSVFKACMKQKKKEFKAGY (disulfide 1-5, 14-31) [SEQ ID NO 56]",0.01 to 1,0.01 to 1
"CDATCQFRKAIDDCAKQAHHSNVPGSVFKACMKQKKKEWKAGH (disulfide 1-5, 14-31) [SEQ ID NO 152]",0.01 to 1,0.01 to 1
